In experiment [1] the target is T1, KRas-mediated phosphorylation of ERK in A549 cells (Homo sapiens, UniProt P01116, G12S).
T1 construct: pERK HTRF read-out
In words: Inhibition of KRas-mediated phosphorylation of ERK (HTRF), A549 cells. It is filed as cell-based. The note with it: HTRF pERK, 3 h incubation.

The target of experiment [2] is T2, KRas-mediated phosphorylation of ERK in H358 cells (Homo sapiens, UniProt P01116, G12C).
T2 construct: pERK HTRF read-out
In words: Inhibition of KRas-mediated phosphorylation of ERK (HTRF), H358 cells. It is filed as cell-based. The following applies: HTRF pERK, 3 h incubation.

For experiment [3], the target named is T3, KRas-mediated phosphorylation of ERK in MKN1 cells (Homo sapiens, UniProt P01116).
T3 construct: pERK HTRF read-out
In words: Inhibition of KRas-mediated phosphorylation of ERK (HTRF), MKN1 cells. It is filed as cell-based. The following applies: MKN1 cells (KRas WT); HTRF pERK; 3 h incubation. The method, then: Inhibition of KRas Phosphorylation of ERK (HTRF) by Exemplary Compounds of Formula (Ia) or (Ib)
Cisbio HTRF Advanced pERK Assay Catalog #64AERPEH • Cells: MKN1, PSN1 • Procedure: • 1. Day 1: Seed 6,000 cells/well −25 μl/well in 384-well white solid bottom plate; RPM1_10% FBS. Incubate overnight at 37 °C/5% CO2. • 2.

The next experiment addresses T4, KRas G12S (Homo sapiens, UniProt P01116, G12S).
T4 construct: Biotinylated KRas (corresponding to amino acids 1-169, produced at Accelegan Inc.); biotin (biotinylated); purchased Accelegan Inc
In words: KRas binding assay, TR-FRET displacement of Cy5 labelled tracer. The following applies: 60-minute incubation at room temperature, 1% DMSO, pH 7.5. The method in brief:
(§1)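 Each mutant protein, a biotinylated 1-169 construct, was combined with terbium streptavidin, tracer and compound. After sixty minutes at room temperature TR-FRET was recorded. POC data were fitted with a four-parameter IC50 model.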

Another experiment has as its target T5, KRas G12C (Homo sapiens, UniProt P01116, G12C).
T5 construct: Biotinylated KRas (corresponding to amino acids 1-169, produced at Accelegan Inc.); biotin (biotinylated); purchased Accelegan Inc
The experiment is described as above. The note with it: 60-minute incubation at room temperature, 1% DMSO, pH 7.5. The method in brief:
as §1

The next experiment has as its target T6, KRas WT (Homo sapiens, UniProt P01116).
T6 construct: Biotinylated KRas (corresponding to amino acids 1-169, produced at Accelegan Inc.); biotin (biotinylated); purchased Accelegan Inc
The description is as above. The following applies: 60-minute incubation at room temperature, 1% DMSO, pH 7.5. The method in brief: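 Biotinylated KRas (residues 1-169) was incubated with tracer, terbium-streptavidin and compound at 1% DMSO final in 50 mM HEPES pH 7.5 containing 5 mM MgCl2, 0.005% Tween-20 and 1 mM DTT. The plate was read after 60 min at room temperature, and percent-of-control data were fit to a 4-parameter IC50 equation.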

SMILES strings stand for the structures.

T5 sequence (P01116 1-169 isoform P01116-2 G12C): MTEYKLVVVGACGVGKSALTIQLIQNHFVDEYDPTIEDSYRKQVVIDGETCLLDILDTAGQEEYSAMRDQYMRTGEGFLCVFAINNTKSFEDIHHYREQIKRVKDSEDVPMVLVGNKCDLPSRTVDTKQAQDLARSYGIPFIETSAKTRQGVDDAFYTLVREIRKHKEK
T3 sequence (P01116 1-188 isoform P01116-2): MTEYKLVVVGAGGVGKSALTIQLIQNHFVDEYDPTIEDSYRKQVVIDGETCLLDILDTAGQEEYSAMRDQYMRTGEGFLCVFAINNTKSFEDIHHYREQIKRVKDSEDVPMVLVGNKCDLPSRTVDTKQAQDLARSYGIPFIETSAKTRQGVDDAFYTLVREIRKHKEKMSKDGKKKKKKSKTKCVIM
T4 sequence (P01116 1-169 isoform P01116-2 G12S): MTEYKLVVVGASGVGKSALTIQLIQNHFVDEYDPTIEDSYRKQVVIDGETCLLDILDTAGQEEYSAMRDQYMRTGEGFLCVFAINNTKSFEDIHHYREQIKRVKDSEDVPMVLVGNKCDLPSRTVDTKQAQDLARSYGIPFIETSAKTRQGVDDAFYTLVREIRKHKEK
T2 sequence (P01116 1-188 isoform P01116-2 G12C): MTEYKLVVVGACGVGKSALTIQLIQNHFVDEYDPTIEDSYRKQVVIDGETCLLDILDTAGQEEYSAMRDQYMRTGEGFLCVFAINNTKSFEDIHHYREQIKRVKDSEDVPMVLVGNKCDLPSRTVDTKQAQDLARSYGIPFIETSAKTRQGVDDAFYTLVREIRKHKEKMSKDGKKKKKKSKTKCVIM
T6 sequence (P01116 1-169 isoform P01116-2): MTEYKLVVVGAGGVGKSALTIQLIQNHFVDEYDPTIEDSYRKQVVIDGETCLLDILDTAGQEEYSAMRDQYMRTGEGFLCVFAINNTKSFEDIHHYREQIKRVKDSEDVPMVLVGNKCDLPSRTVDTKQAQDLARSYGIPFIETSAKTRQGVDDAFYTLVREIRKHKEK
T1 sequence (P01116 1-188 isoform P01116-2 G12S): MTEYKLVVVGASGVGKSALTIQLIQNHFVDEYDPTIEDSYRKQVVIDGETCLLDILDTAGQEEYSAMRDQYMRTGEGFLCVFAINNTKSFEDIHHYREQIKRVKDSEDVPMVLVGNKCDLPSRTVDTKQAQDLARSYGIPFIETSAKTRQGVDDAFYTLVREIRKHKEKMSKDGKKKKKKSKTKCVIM

As for `CCc1cc(O)cc2cccc(-c3c(Cl)cc4c(N5CCCC(C(=O)n6ccc(C)n6)CC5)nc(OC[C@@]56CCCN5C[C@H](F)C6)nc4c3F)c12` (stereo partly drawn) [Example 264, (1-(6-chloro-7-(8-ethyl-6-hydroxynaphthalen-1-yl)-8-fluoro-2-(((2R,7aS)-2-fluorotetrahydro-1H-pyrrolizin-7a(5H)-yl)methoxy)quinazolin-4-yl)azepan-4-yl)(3-methyl-1H-pyrazol-1-yl)methanone], the IC50 came to 138 nM in experiment [1]; 847 nM in experiment [2]; 3490 nM in experiment [3]; 232 nM at KRas G12S; 170 nM on KRas G12C; 732 nM at KRas WT.
Regarding `CN(CCCC(=O)Oc1c(F)cccc1F)c1nc(OC[C@@]23CCCN2C[C@H](F)C3)nc2c(F)c(-c3ccc(F)c4sc(N)c(C#N)c34)c(Cl)cc12` [Example 265, 2,6-difluorophenyl 4-((7-(2-amino-3-cyano-7-fluorobenzo[b]thiophen-4-yl)-6-chloro-8-fluoro-2-(((2R,7aS)-2-fluorotetrahydro-1H-pyrrolizin-7a(5H)-yl)methoxy)quinazolin-4-yl)(methyl)amino)butanoate], the IC50 in experiment [1] stood at 271 nM; in experiment [2], 370 nM; in experiment [3], 844 nM; at KRas G12S it was 12 nM; at KRas G12C, 3 nM; at KRas WT it was 35 nM.
On to `CN(CCCC(=O)N(C)c1cccnc1)c1nc(OC[C@@]23CCCN2C[C@H](F)C3)nc2c(F)c(-c3ccc(F)c4sc(N)c(C#N)c34)c(Cl)cc12` [Example 266, 4-((7-(2-amino-3-cyano-7-fluorobenzo[b]thiophen-4-yl)-6-chloro-8-fluoro-2-(((2R,7aS)-2-fluorotetrahydro-1H-pyrrolizin-7a(5H)-yl)methoxy)quinazolin-4-yl)(methyl)amino)-N-methyl-N-(pyridin-3-yl) butanamide], for which the IC50 turned out to be 410 nM in experiment [1]; 58 nM in experiment [2]; 236 nM in experiment [3]; 9 nM at KRas G12S; 5 nM at KRas G12C; 10 nM at KRas WT.
Regarding `CN(CCCC(=O)N(C)c1ccncc1)c1nc(OC[C@@]23CCCN2C[C@H](F)C3)nc2c(F)c(-c3ccc(F)c4sc(N)c(C#N)c34)c(Cl)cc12` [Example 267, 4-((7-(2-amino-3-cyano-7-fluorobenzo[b]thiophen-4-yl)-6-chloro-8-fluoro-2-(((2R,7aS)-2-fluorotetrahydro-1H-pyrrolizin-7a(5H)-yl)methoxy)quinazolin-4-yl)(methyl)amino)-N-methyl-N-(pyridin-4-yl) butanamide], the IC50 turned out to be 653 nM in experiment [1]; 230 nM in experiment [2]; 354 nM in experiment [3]; 8 nM at KRas G12S; 5 nM at KRas G12C; 9 nM on KRas WT.
On to `CN(CCCC(=O)N(C)c1ccncn1)c1nc(OC[C@@]23CCCN2C[C@H](F)C3)nc2c(F)c(-c3ccc(F)c4sc(N)c(C#N)c34)c(Cl)cc12` [Example 268, 4-((7-(2-amino-3-cyano-7-fluorobenzo[b]thiophen-4-yl)-6-chloro-8-fluoro-2-(((2R,7aS)-2-fluorotetrahydro-1H-pyrrolizin-7a(5H)-yl)methoxy)quinazolin-4-yl)(methyl)amino)-N-methyl-N-(pyrimidin-4-yl) butanamide], for which the IC50 in experiment [1] was found to be 266 nM; in experiment [2], 75 nM; in experiment [3], 205 nM; at KRas G12S it was 9 nM; on KRas G12C, 5 nM; at KRas WT, 11 nM.

The record behind these values is US20260356856A1, “KRAS G12S AND G12C INHIBITORS” (MIRATI THERAPEUTICS, INC., priority 2023, published 2026).
